From patent publication US20260034153A1, “Cerebral Blood Flow Augmenter, Brain Activity Promoter, and Vigilance Improver” (Mitsui DM Sugar Co., Ltd., priority 2022, published 2026)

Experiments:
[1] = tested on: healthy men and women; experiment: Digit vigilance task (DVT) response time after intake of test food, crossover test; format: in vivo, human; conditions: 10.0 g in 100 mL water taken orally before 2nd DVT; 5 DVTs, one per hour; 64 subjects; FIG. 1
Description: As the subjects, 64 healthy men and women of 20 to 60 years old were employed. The effects of intake of isomaltulose on cerebral blood flow and brain activity were evaluated based on measurement of the response time to a cognitive task (Digit vigilance task (DVT)) and change of the cerebral blood flow in accordance with the following test. Test methods are more specifically shown below. In the test, each block including the steps shown in Table 1 was performed in one hour, and the 1st block to the 5th block were continuously performed on the same day. […] Before the start of the 2nd DVT, an aqueous solution prepared by dissolving 10.0 g of isomaltulose in 100 mL of water was given as a test food. After the completion of DVT and before the next DVT, the Uchida Kraepelin test was performed. The Uchida Kraepelin test is a test of adjacent single-digit addition. In this Example, the test was performed in order to apply a load such as fatigue to the subject in order to control the break time. DVT is a task mainly used for measuring the vigilance (Non Patent Literature 1 (Joel S. Warm et al., Vigilance requires hard mental work and is stressful, Human Factors, Vol. 50 (3), pp. 433-41, 2008)). […] The time from display of the number or character to the subject's response is measured. […]

[2] = fraction of the hydrolysis rate of sucrose; cited from earlier work
[3] = tested on: healthy men and women; experiment: Subjective questionnaire survey (VAS method) after the task; format: in vivo, human; conditions: questionnaire at 3rd to 5th block; compared to glucose control group
Description: As the subjects, 64 healthy men and women of 20 to 60 years old were employed. The effects of intake of isomaltulose on cerebral blood flow and brain activity were evaluated based on measurement of the response time to a cognitive task (Digit vigilance task (DVT)) and change of the cerebral blood flow in accordance with the following test. Test methods are more specifically shown below. In the test, each block including the steps shown in Table 1 was performed in one hour, and the 1st block to the 5th block were continuously performed on the same day. […] Before the start of the 2nd DVT, an aqueous solution prepared by dissolving 10.0 g of isomaltulose in 100 mL of water was given as a test food. After the completion of DVT and before the next DVT, the Uchida Kraepelin test was performed. The Uchida Kraepelin test is a test of adjacent single-digit addition. In this Example, the test was performed in order to apply a load such as fatigue to the subject in order to control the break time. First, “Last night, did you sleep better than usual?” was asked. After DVT or Uchida Kraepelin test, the survey for asking subjectivity of the subjects was conducted as to “How are you feeling right now?”, “Are you feeling tired right now?”, “Are you feeling irritated right now?”, “Are you feeling sleepy right now?”, and “Did you work diligently on the task until the end?”. […]

[4] = tested on: healthy men and women; experiment: Change in cerebral blood flow in the dorsal lateral prefrontal area during DVT, measured by fNIRS (HOT-2000); format: in vivo, human; conditions: throughout 5 DVTs, compared to glucose intake group, FIGS. 2 and 3
Description: The subjects mentioned above were instructed to take a test diet containing glucose instead of isomaltulose on another day and the same test was performed (crossover test). They constituted a control group.
Using a brain activity measuring apparatus (HOT-2000, manufactured by NeU Corporation) based on fNIRS (near-Infrared spectroscopy), a change in cerebral blood flow in the dorsal lateral prefrontal area was measured during DVT. According to this apparatus, a change in hemoglobin concentration in blood can be detected by irradiation with near-infrared light, with the result that a change in cerebral blood flow in an active area of the brain can be measured.

Question: For `O=C(CO)[C@@H](O)[C@H](O)[C@H](O)CO[C@H]1O[C@H](CO)[C@@H](O)[C@H](O)[C@H]1O` [isomaltulose, 6-O-α-D-glucopyranosyl-D-fructose], which “response time in DVT (change of average response time relative to 1st DVT)” value [1] is on record?
Answer: less likely to increase

Question: And the “hydrolysis rate relative to sucrose” value [2]?
Answer: ⅕

Question: And the “answer to question "have you dealt with the task diligently to the end?"” value [3]?
Answer: dealt with the task diligently

Question: What about the “change in cerebral blood flow during DVT (average 0 to 120 seconds)” value [4] of the same compound?
Answer: significantly large
